One series addresses T1, Human IBAT (Homo sapiens, UniProt Q12908).
T1 construct: expressed in transfected cells; Puromycin-selected
T1 sequence (Q12908 1-348): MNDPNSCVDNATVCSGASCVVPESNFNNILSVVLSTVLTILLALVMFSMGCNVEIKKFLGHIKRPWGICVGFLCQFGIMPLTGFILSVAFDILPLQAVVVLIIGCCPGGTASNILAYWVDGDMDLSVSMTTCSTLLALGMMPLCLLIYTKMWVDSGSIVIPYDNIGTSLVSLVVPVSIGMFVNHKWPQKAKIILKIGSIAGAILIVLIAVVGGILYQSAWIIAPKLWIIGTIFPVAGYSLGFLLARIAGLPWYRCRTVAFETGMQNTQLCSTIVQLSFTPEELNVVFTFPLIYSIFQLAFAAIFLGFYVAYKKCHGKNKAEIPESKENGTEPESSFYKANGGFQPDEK
The series can be described thus: IBAT (h/m) assay, human IBAT-overexpressing cells, 3H-taurocholic acid uptake. It is filed as cell-based. The conditions noted are these: 0.25 μM 3H-taurocholic acid and 5 μM cold taurocholic acid, 20 minutes, read-out: hIBAT IC50. The method, boiled down:
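Human or mouse IBAT-overexpressing cells, seeded 48 h before the assay, were incubated 20 min at 37 °C with 0.25 μM 3H-taurocholic acid plus 5 μM cold taurocholic acid and inhibitor (10-point 3-fold series from 10 μM top, 0.2% DMSO final), in duplicate. After ice stop and washes with 1 mM cold taurocholate, uptake was read by scintillation counting.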

A further series in a line: Bioavailability studies. It is filed as in vivo, mice. Particulars: male, mouse, plasma, intravenous 1 mg/kg, oral 10 mg/kg. As for the experimental part:
Male mice (C57BL/6 or CD1) or Wistar rats of 8-9 weeks old were used. For each test compound, two groups of 3 animals each were used. One group was administered a single intravenous dose of 1 mg/kg (vehicle 100% DMSO) through the tail vein and the other group was administered a single oral dose of 10 mg/kg through gavage needle. The group that was administered an oral dose was fasted overnight. Blood samples were collected after 0.083, 0.25, 0.5, 1, 2, 4, 6, 8 and 24 hours following intravenous administration, and after 0.25, 0.5, 1, 2, 4, 6, 8 and 24 hours following oral administration. Blood samples were taken from saphenous vein. 0.2% EDTA was used as the anticoagulant. The samples were analyzed by a discovery grade bioanalytical method developed for the estimation of test compound in plasma, using an LC-MS/MS system.

The structures appear in SMILES notation.

Broadly, the IC50 is the concentration that gives 50% inhibition. Turning to `CCCCC1(C)CN(c2ccccc2)c2cc(N(C)C)c(OCCC(=O)O)cc2S(=O)(=O)C1` (single isomer, unassigned) [29, enantiomer 1], the IC50 on Human IBAT was found to be 5 nM. With `CCCCC1(CC)CN(c2ccccc2)c2cc(SC)c(OCCC(=O)O)cc2S(=O)(=O)C1` (single isomer, unassigned) [Example 13, 3-((3-butyl-3-ethyl-7-(methylthio)-1,1-dioxido-5-phenyl-2,3,4,5-tetrahydro-1,5-benzothiazepin-8-yl)oxy)propanoic acid], the IC50 at Human IBAT worked out at 4 nM. Further, the bioavailability in the series “Bioavailability studies” (CD1 mice) is 102%.

On to `CCCCC1(CC)CN(c2ccccc2)c2cc(SC)c(OCC(C)(F)C(=O)O)cc2S(=O)(=O)C1` (centres unmarked) [Example 34, 3-((3-butyl-3-ethyl-7-(methylthio)-1,1-dioxido-5-phenyl-2,3,4,5-tetrahydro-1,5-benzothiazepin-8-yl)oxy)-2-fluoro-2-methylpropanoic acid], for which the IC50 at Human IBAT was found to be 12 nM. Still for that read-out and setting: then `CCCCC1(CC)CN(c2ccccc2)c2cc(Br)c(OCCC(=O)O)cc2S(=O)(=O)C1` (racemic) [Example 1, 3-((7-Bromo-3-butyl-3-ethyl-1,1-dioxido-5-phenyl-2,3,4,5-tetrahydro-1,5-benzothiazepin-8-yl)oxy)propanoic acid], with 18 nM. On the same count and under the same terms, then `CCCCC1(CCCC)CN(c2ccccc2)c2cc(SC)c(OCCC(=O)O)cc2S(=O)(=O)C1` [Example 15, 3-((3,3-dibutyl-7-(methylthio)-1,1-dioxido-5-phenyl-2,3,4,5-tetrahydro-1,5-benzothiazepin-8-yl)oxy)propanoic acid], with 32 nM. Take `CCCCC1(CCCC)CN(c2ccccc2)c2cc(SC)c(OCC(O)C(=O)O)cc2S(=O)(=O)C1` (single isomer, unassigned) [Example 10, 3-((3,3-dibutyl-7-(methylthio)-1,1-dioxido-5-phenyl-2,3,4,5-tetrahydro-1,5-benzothiazepin-8-yl)oxy)-2-hydroxypropanoic acid]: at Human IBAT, the IC50 came out at 1 nM. In the series “Bioavailability studies” (C57BL/6 mice), the bioavailability stood at 13%. As for `CCCCC1(CC)CN(c2ccccc2)c2cc(SC)c(OCC(C)(F)C(=O)O)cc2S(=O)(=O)C1` (single isomer, unassigned) [35, diastereomer 1], the IC50 at Human IBAT was found to be 4 nM. Besides, in the series “Bioavailability studies” (CD1 mice), the bioavailability came out at 8%.

As for `CCCCC1(C)CN(c2ccccc2)c2cc(SC)c(OCCC(=O)O)cc2S(=O)(=O)C1` (single isomer, unassigned) [Example 24, 3-((3-butyl-3-methyl-7-(methylthio)-1,1-dioxido-5-phenyl-2,3,4,5-tetrahydro-1,5-benzothiazepin-8-yl)oxy)propanoic acid], on Human IBAT, the IC50 was determined as 7 nM. The same measure, in the same setting: the figure for `CCCCC1(CC)CN(c2ccccc2)c2cc(Cl)c(OCCC(=O)O)cc2S(=O)(=O)C1` (single isomer, unassigned) [Example 6, 3-((3-butyl-7-chloro-3-ethyl-1,1-dioxido-5-phenyl-2,3,4,5-tetrahydro-1,5-benzothiazepin-8-yl)oxy)propanoic acid] is 17 nM. As to `CCCCC1(CC)CN(c2ccccc2)c2cc(Br)c(OCCC(=O)O)cc2S(=O)(=O)C1` (single isomer, unassigned) [Example 2, 3-((7-bromo-3-butyl-3-ethyl-1,1-dioxido-5-phenyl-2,3,4,5-tetrahydro-1,5-benzothiazepin-8-yl)oxy)propanoic acid], the IC50 on Human IBAT stood at 6 nM. Also, in “Bioavailability studies” (C57BL/6 mice), the bioavailability turned out to be 104%.

For the molecule `CCCCC1(C)CN(c2ccccc2)c2cc(SC)c(OCC(O)C(=O)O)cc2S(=O)(=O)C1` (single isomer, unassigned) [32, diastereomer 1], the IC50 on Human IBAT turned out to be 3 nM. For the molecule `CCCCC1(CCCC)CN(c2ccccc2)c2cc(SC)c(OCC(O)C(=O)O)cc2S(=O)(=O)C1` (single isomer, unassigned) [Example 11, 3-((3,3-dibutyl-7-(methylthio)-1,1-dioxido-5-phenyl-2,3,4,5-tetrahydro-1,5-benzothiazepin-8-yl)oxy)-2-hydroxypropanoic acid], the IC50 on Human IBAT was 4 nM. As for `CCCCC1(CC)CN(c2ccccc2)c2cc(Cl)c(OC(C)CC(=O)O)cc2S(=O)(=O)C1` (single isomer, unassigned) [30, diastereomer 1], the IC50 at Human IBAT was 22 nM.

As for `CCCCC1(CCCC)CN(c2ccccc2)c2cc(Br)c(OCCC(=O)O)cc2S(=O)(=O)C1` [Example 4, 3-((7-Bromo-3,3-dibutyl-1,1-dioxido-5-phenyl-2,3,4,5-tetrahydro-1,5-benzothiazepin-8-yl)oxy)propanoic acid], the IC50 at Human IBAT was 26 nM. On the same count and under the same terms, then `CCCCC1(CC)CN(c2ccccc2)c2cc(SC)c(OCC(C)(O)C(=O)O)cc2S(=O)(=O)C1` (single isomer, unassigned) [48, diastereomer 2], with 16 nM; and `CCCCC1(CCCC)CN(c2ccccc2)c2cc(SC)c(OCC(O)C(=O)O)cc2S(=O)(=O)C1` (racemic) [Example 9, 3-((3,3-Dibutyl-7-(methylthio)-1,1-dioxido-5-phenyl-2,3,4,5-tetrahydro-1,5-benzothiazepin-8-yl)oxy)-2-hydroxypropanoic acid], with 3 nM.

For the origin of these results see patent US11773071B2, “Benzothiazepine compounds and their use as bile acid modulators” (Albireo AB, priority 2019, dated 2023).
